Assay results published in the NIST ThermoML archive (doi:10.1021/acs.jced.5b00802).
± gives the expanded uncertainty stated by the source.

How the values were obtained:
[1] = refractive index (Na D-line) (dimensionless); xn = mol fraction of the nth substance listed; conditions: 100 kPa, Liquid, Standard Abbe refractometry
[2] = xn = mol fraction of the nth substance listed; conditions: 100 kPa, Liquid; for speed of sound: Frequency=3 MHz, Sing-around technique in a fixed-path interferometer; for mass density: Vibrating tube method

CCCCN [1-butanamine] + CN(C)C=O
Conditions	mass density, [2] [kg/m3]	refractive index, [1]	speed of sound, [2] [m/s]
293.15 K, x2 = 0.0599	747.39 ± 1.8	1.40222 ± 0.0042	1277.7 ± 1.4
293.15 K, x2 = 0.1056	755.445 ± 1.8	1.40348 ± 0.0042	1285 ± 1.4
293.15 K, x2 = 0.1591	765.035 ± 1.9	1.40498 ± 0.0042	1293.8 ± 1.4
293.15 K, x2 = 0.201	–	1.40619 ± 0.0042	–
293.15 K, x2 = 0.2505	782.005 ± 1.9	1.4076 ± 0.0042	1309.6 ± 1.4
293.15 K, x2 = 0.3017	791.811 ± 1.9	1.40911 ± 0.0042	1318.9 ± 1.4
293.15 K, x2 = 0.3583	802.88 ± 2	1.41079 ± 0.0043	1329.6 ± 1.3
293.15 K, x2 = 0.3992	811.114 ± 2	1.412 ± 0.0043	1337.8 ± 1.3
293.15 K, x2 = 0.4401	–	1.41322 ± 0.0043	–
293.15 K, x2 = 0.5059	833.13 ± 2	1.41521 ± 0.0043	1359.6 ± 1.3
293.15 K, x2 = 0.5483	842.154 ± 2.1	–	1368.9 ± 1.3
293.15 K, x2 = 0.6043	–	1.41829 ± 0.0043	–
293.15 K, x2 = 0.6569	866.102 ± 2.1	1.41992 ± 0.0043	1393.7 ± 1.3
293.15 K, x2 = 0.6999	875.844 ± 2.1	1.42126 ± 0.0043	1404 ± 1.3
293.15 K, x2 = 0.7537	888.314 ± 2.2	1.42292 ± 0.0043	1416.7 ± 1.3
293.15 K, x2 = 0.8036	900.101 ± 2.2	1.42448 ± 0.0043	1429 ± 1.3
293.15 K, x2 = 0.8579	913.315 ± 2.2	1.42618 ± 0.0043	1442.3 ± 1.3
293.15 K, x2 = 0.9048	924.751 ± 2.3	1.42763 ± 0.0043	1453.7 ± 1.2
293.15 K, x2 = 0.9546	937.212 ± 2.3	1.42915 ± 0.0043	1465.6 ± 1.2
298.15 K, x2 = 0.0575	742.224 ± 1.8	1.39946 ± 0.0042	1255.4 ± 1.4
298.15 K, x2 = 0.1092	751.333 ± 1.8	1.40093 ± 0.0042	1263.9 ± 1.4
298.15 K, x2 = 0.1519	759.015 ± 1.9	1.40215 ± 0.0042	1271.1 ± 1.4
298.15 K, x2 = 0.2043	768.674 ± 1.9	1.40367 ± 0.0042	1280.1 ± 1.4
298.15 K, x2 = 0.2448	776.215 ± 1.9	1.40485 ± 0.0042	1287.4 ± 1.4
298.15 K, x2 = 0.309	788.51 ± 1.9	1.4068 ± 0.0042	1299.3 ± 1.4
298.15 K, x2 = 0.3558	797.705 ± 1.9	1.4082 ± 0.0042	1308.4 ± 1.3
298.15 K, x2 = 0.3986	806.285 ± 2	–	1317 ± 1.3
298.15 K, x2 = 0.4381	814.268 ± 2	–	1324.9 ± 1.3
298.15 K, x2 = 0.5028	827.736 ± 2	1.41274 ± 0.0043	1338.6 ± 1.3
298.15 K, x2 = 0.6005	848.795 ± 2.1	1.41578 ± 0.0043	1360.6 ± 1.3
298.15 K, x2 = 0.6608	–	1.41769 ± 0.0043	–
298.15 K, x2 = 0.6934	869.781 ± 2.1	1.41871 ± 0.0043	1382.5 ± 1.3
298.15 K, x2 = 0.7572	884.516 ± 2.2	1.42076 ± 0.0043	1398 ± 1.3
298.15 K, x2 = 0.8056	895.958 ± 2.2	1.4223 ± 0.0043	1410 ± 1.3
298.15 K, x2 = 0.8546	–	1.42383 ± 0.0043	–
298.15 K, x2 = 0.9076	920.837 ± 2.2	1.42553 ± 0.0043	1435.1 ± 1.2
298.15 K, x2 = 0.9553	932.723 ± 2.3	1.42705 ± 0.0043	1446.6 ± 1.2
303.15 K, x2 = 0.0505	736.213 ± 1.8	1.39644 ± 0.0042	1233 ± 1.4
303.15 K, x2 = 0.1477	753.539 ± 1.8	1.39927 ± 0.0042	1249.4 ± 1.4
303.15 K, x2 = 0.2019	763.466 ± 1.9	1.40087 ± 0.0042	1259 ± 1.4
303.15 K, x2 = 0.241	770.708 ± 1.9	1.40209 ± 0.0042	1266 ± 1.4
303.15 K, x2 = 0.3024	782.423 ± 1.9	1.40392 ± 0.0042	1277.5 ± 1.4
303.15 K, x2 = 0.3558	792.882 ± 1.9	1.40552 ± 0.0042	1287.8 ± 1.3
303.15 K, x2 = 0.3992	–	1.40686 ± 0.0042	–
303.15 K, x2 = 0.4358	808.96 ± 2	1.40802 ± 0.0042	1304.1 ± 1.3
303.15 K, x2 = 0.5114	824.673 ± 2	1.41041 ± 0.0042	1320.3 ± 1.3
303.15 K, x2 = 0.5281	828.281 ± 2	1.41094 ± 0.0043	1324 ± 1.3
303.15 K, x2 = 0.6056	845.104 ± 2.1	1.41337 ± 0.0043	1341.6 ± 1.3
303.15 K, x2 = 0.6574	–	1.41502 ± 0.0043	–
303.15 K, x2 = 0.696	865.473 ± 2.1	1.41625 ± 0.0043	1363.2 ± 1.3
303.15 K, x2 = 0.7558	879.286 ± 2.1	1.4182 ± 0.0043	1377.7 ± 1.3
303.15 K, x2 = 0.8006	889.962 ± 2.2	1.41964 ± 0.0043	1389 ± 1.3
303.15 K, x2 = 0.8544	902.88 ± 2.2	1.42138 ± 0.0043	1402.3 ± 1.2
303.15 K, x2 = 0.8998	914.033 ± 2.2	1.42282 ± 0.0043	1413.7 ± 1.2
303.15 K, x2 = 0.9466	925.732 ± 2.3	1.42431 ± 0.0043	1425.2 ± 1.2

CCCNCCC [dipropylamine] + CN(C)C=O
Conditions	mass density, [2] [kg/m3]	refractive index, [1]	speed of sound, [2] [m/s]
293.15 K, x2 = 0.06	745.894 ± 1.8	1.40543 ± 0.0042	1218.2 ± 1.4
293.15 K, x2 = 0.1071	752.141 ± 1.8	–	1225 ± 1.4
293.15 K, x2 = 0.1556	–	1.40725 ± 0.0042	–
293.15 K, x2 = 0.156	758.933 ± 1.8	–	1232.9 ± 1.4
293.15 K, x2 = 0.1975	764.87 ± 1.9	–	1239.3 ± 1.4
293.15 K, x2 = 0.249	772.54 ± 1.9	–	1248.1 ± 1.4
293.15 K, x2 = 0.2614	–	1.40952 ± 0.0042	–
293.15 K, x2 = 0.3099	782.194 ± 1.9	–	1259.4 ± 1.3
293.15 K, x2 = 0.3463	788.151 ± 1.9	1.4114 ± 0.0043	1266.2 ± 1.3
293.15 K, x2 = 0.3985	797.199 ± 1.9	1.41266 ± 0.0043	1276.9 ± 1.3
293.15 K, x2 = 0.448	806.192 ± 2	–	1287.6 ± 1.3
293.15 K, x2 = 0.4554	–	1.41402 ± 0.0043	–
293.15 K, x2 = 0.4974	815.656 ± 2	–	1299.2 ± 1.3
293.15 K, x2 = 0.5487	825.989 ± 2	1.41645 ± 0.0043	1312 ± 1.3
293.15 K, x2 = 0.6018	–	1.41789 ± 0.0043	–
293.15 K, x2 = 0.6562	849.651 ± 2.1	–	1342.1 ± 1.3
293.15 K, x2 = 0.7033	–	1.42079 ± 0.0043	–
293.15 K, x2 = 0.7514	873.097 ± 2.1	–	1373.4 ± 1.3
293.15 K, x2 = 0.8216	892.212 ± 2.2	1.42444 ± 0.0043	1399.8 ± 1.3
293.15 K, x2 = 0.8501	900.523 ± 2.2	–	1411.2 ± 1.4
293.15 K, x2 = 0.8844	–	1.42653 ± 0.0043	–
293.15 K, x2 = 0.9025	916.508 ± 2.3	–	1433.3 ± 1.4
293.15 K, x2 = 0.9486	931.283 ± 2.3	1.42882 ± 0.0043	1453.4 ± 1.4
298.15 K, x2 = 0.0626	741.577 ± 1.8	1.40259 ± 0.0042	1196.9 ± 1.4
298.15 K, x2 = 0.1083	747.697 ± 1.8	1.40358 ± 0.0042	1204 ± 1.4
298.15 K, x2 = 0.1544	754.025 ± 1.8	1.40443 ± 0.0042	1211.2 ± 1.4
298.15 K, x2 = 0.2541	768.732 ± 1.9	1.40662 ± 0.0042	1228.1 ± 1.4
298.15 K, x2 = 0.3148	778.293 ± 1.9	1.40796 ± 0.0042	1239.3 ± 1.3
298.15 K, x2 = 0.3609	786.012 ± 1.9	1.40908 ± 0.0042	1248.3 ± 1.3
298.15 K, x2 = 0.4077	794.223 ± 1.9	1.41017 ± 0.0042	1258.2 ± 1.3
298.15 K, x2 = 0.4966	810.8 ± 2	1.41247 ± 0.0043	1278.5 ± 1.3
298.15 K, x2 = 0.5386	819.199 ± 2	–	1288.9 ± 1.3
298.15 K, x2 = 0.6082	833.997 ± 2	–	1307.9 ± 1.3
298.15 K, x2 = 0.6527	844.084 ± 2.1	1.41673 ± 0.0043	1321.1 ± 1.3
298.15 K, x2 = 0.7477	867.448 ± 2.1	1.4196 ± 0.0043	1352.4 ± 1.3
298.15 K, x2 = 0.8063	883.226 ± 2.2	1.42147 ± 0.0043	1374 ± 1.3
298.15 K, x2 = 0.902	911.457 ± 2.2	1.42478 ± 0.0043	1413.1 ± 1.4
298.15 K, x2 = 0.9482	926.367 ± 2.3	1.42645 ± 0.0043	1433.5 ± 1.4
303.15 K, x2 = 0.0453	734.885 ± 1.8	1.39971 ± 0.0042	1174 ± 1.4
303.15 K, x2 = 0.1034	742.55 ± 1.8	1.40091 ± 0.0042	1183 ± 1.4
303.15 K, x2 = 0.1963	755.529 ± 1.8	1.40293 ± 0.0042	1198 ± 1.4
303.15 K, x2 = 0.2582	764.775 ± 1.9	1.40419 ± 0.0042	1208.8 ± 1.4
303.15 K, x2 = 0.3559	780.614 ± 1.9	1.40647 ± 0.0042	1227.6 ± 1.3
303.15 K, x2 = 0.4099	790.03 ± 1.9	1.40779 ± 0.0042	1239 ± 1.3
303.15 K, x2 = 0.4565	798.539 ± 1.9	–	1249.4 ± 1.3
303.15 K, x2 = 0.5415	815.193 ± 2	–	1270.3 ± 1.3
303.15 K, x2 = 0.6016	827.909 ± 2	1.41295 ± 0.0043	1286.6 ± 1.3
303.15 K, x2 = 0.6517	839.209 ± 2.1	–	1301.4 ± 1.3
303.15 K, x2 = 0.7502	863.388 ± 2.1	1.41745 ± 0.0043	1334 ± 1.3
303.15 K, x2 = 0.8498	890.941 ± 2.2	1.4207 ± 0.0043	1372 ± 1.3
303.15 K, x2 = 0.9	906.165 ± 2.2	1.42246 ± 0.0043	1393.2 ± 1.4
303.15 K, x2 = 0.9498	922.203 ± 2.3	1.42417 ± 0.0043	1415.2 ± 1.4
